Laboratory results taken from patent publication US11925624B2, “Methods of administering anti-fibrotic therapy” (GENENTECH, INC., priority 2016, dated 2024).
Like-named read-outs stand apart in the source and are kept apart here.

Experiment: Phase 1 Part A proton pump inhibitor (rabeprazole) effect on single-dose pharmacokinetics
Assay type: in vivo, human
Settings: for AUC0-t (norm) / AUC0-∞ (norm) / CL/F / CL/F(norm) / Cmax (norm) / λZ / % AUCextrap / AUC(0-inf) / AUC(0-t) / Cmax / half-life / Tmax / Vd/F: +20 mg Rabeprazole QD x 3; for % AUCextrap: arithmetic mean; for AUC(0-inf) / AUC(0-t) / Cmax / half-life / Tmax / Vd/F: human, plasma, oral; for Tmax: median
Description: This study was a randomized, blinded, placebo-controlled, ascending-dose study to evaluate the safety, tolerability, and pharmacokinetic (PK) of single (Part A) and multiple (Part B) doses of Compound I in healthy subjects. In addition, the effects of a standard high-fat breakfast, standard low-fat breakfast, and pretreatment and co-administration of a proton pump inhibitor (PPI) on the tolerability and PK of a single dose of Compound I were investigated in 2 groups in Part A. All subjects received their full dose of Compound I, administered as the appropriate number of either 25 or 200 mg tablets. The high fat breakfast comprised the following: total energy: 895 kcal; total fat: 61 g; total protein: 41 g; total carbohydrate: 46 g. The low fat breakfast comprised the following: total energy: 611 kcal; total fat: 14.7 g; total protein: 20.3 g; total carbohydrate: 106.3 g.
For Group A4, doses (400 mg Compound I or placebo) during Treatment Period 1 were administered in a fasted state on the morning of Day 1. Doses in Treatment Period 2 were administered 30 minutes after starting, and within approximately 10 minutes of completing, a high-fat standard breakfast on the morning of Day 1. Doses during Treatment Period 3 were administered 30 minutes after starting, and within approximately 10 minutes of completing a low-fat standard meal on the morning of Day 1. Doses during Treatment Period 4 were administered on Day 1 after an overnight fast and following administration of a PPI (rabeprazole 20 mg) for 3 days (given as 3 daily [QD] doses, with the final PPI dose at 2 hours prior to study drug administration on Day 1). Subjects in Group A4 received the same Compound I or placebo treatment in all treatment periods, such that each subject received up to 4 single doses of Compound I or placebo.
For Group A5, doses (800 mg Compound I or placebo) during Treatment Period 1 were administered in a fasted state on the morning of Day 1, doses during Treatment Period 2 were administered 30 minutes after starting a low-fat standard breakfast on the morning of Day 1, and doses during Treatment Period 3 were administered on Day 1 after a low-fat meal and following administration of a PPI (rabeprazole 20 mg) for 3 days (given as 3 QD doses, with the final PPI dose at 2 hours prior to study drug administration on Day 1). Subjects in Group A5 received the same Compound I or placebo treatment in all treatment periods, such that each subject received up to 3 single doses of Compound I or placebo.
In Part A, all doses in Treatment Period 1 were administered after an overnight fast of at least 8 hours. For the A4 cohort, in Treatment Periods 2 and 3, doses were administered 30 minutes after starting and approximately 10 minutes after completing a high- or low-fat breakfast. In Treatment Period 4, the dose was administered after an overnight fast and following administration of a PPI (PPI was comprised of 3 doses of rabeprazole 20 mg, starting on Day −2 and with the final dose 2 hours before Compound I administration on Day 1). For Group A5, doses during Treatment Period 2 were administered 30 minutes after starting and approximately 10 minutes after completing a low-fat standard breakfast on the morning of Day 1, and doses during Treatment Period 3 were administered on Day 1 after a low-fat meal and following administration of a PPI for 3 days (given as 3 QD doses, with the final PPI dose at 2 hours prior to study drug administration on Day 1).

[1] = 400 mg Fasted + 20 mg Rabeprazole QD x 3 (Test) vs 400 mg Fasted (Reference)
[2] = 400 mg single dose (A4), Fasted
[3] = 800 mg Fed, Low-fat + 20 mg Rabeprazole QD x 3 (Test) vs 800 mg Fed, Low-fat (Reference)
[4] = 800 mg single dose (A5), Fed, Low-fat
[5] = pretreatment and co-administration of 20 mg rabeprazole (QD×3), low-fat fed state, compared to Compound I alone

In the case of `Cn1cc(-c2cn(-c3ccc(OC(F)(F)F)cc3)c(=O)c3ncn(C)c23)cn1` [Compound I], the “Test/Reference ratio of LS means, AUC0-t” value [1] was 86.4%, the “Test/Reference ratio of LS means, AUC0-∞” value [1] was 87.2% and the “Test/Reference ratio of LS means, Cmax” value [1] was 83.6%. For the same compound, the “AUC0-t (norm)” value [2] was 8130 (hr*ng/mL)/(mg/kg), the “AUC0-∞ (norm)” value [2] was 8410 (hr*ng/mL)/(mg/kg) and the CL/F [2] was 139 mL/min. The “CL/F(norm)” value [2] was 1.98 (mL/min)/kg, the “Cmax (norm)” value [2] was 660 ng/mL/mg/kg and the λZ [2] was 0.0603 h⁻¹. The “% AUCextrap” value [2] was 3.25%, the “Test/Reference ratio of LS means, AUC0-t” value [3] was 76.5% and the “Test/Reference ratio of LS means, AUC0-∞” value [3] was 77.2%. The “Test/Reference ratio of LS means, Cmax” value [3] was 75.0%, the “AUC0-t (norm)” value [4] was 11000 (hr*ng/mL)/(mg/kg) and the “AUC0-∞ (norm)” value [4] was 11100 (hr*ng/mL)/(mg/kg). The CL/F [4] was 108 mL/min, the “CL/F(norm)” value [4] was 1.50 (mL/min)/kg and the “Cmax (norm)” value [4] was 900 ng/mL/mg/kg. For the same compound, the λZ [4] was 0.0666 h⁻¹, the “% AUCextrap” value [4] was 1.27% and the AUC(0-inf) [2] was 48100 ng·h/mL. It also gave an AUC(0-t) [2] of 46500 ng·h/mL, a Cmax [2] of 3770 ng/mL and a half-life [2] of 10.5 h. For the same compound, the Tmax [2] was 2.5 h, the Vd/F (400 mg single dose (A4), Fasted, read-out: Vz/F) was 138 L and the Vd/F (400 mg single dose (A4), Fasted, read-out: Vz/F(norm)) was 1.97 L/kg. It also gave an AUC(0-inf) [4] of 124000 ng·h/mL, an AUC(0-t) [4] of 122000 ng·h/mL and a Cmax [4] of 10000 ng/mL. It also gave a half-life [4] of 8.92 h, a Tmax [4] of 3 h and a Vd/F (800 mg single dose (A5), Fed, Low-fat, read-out: Vz/F) of 97.2 L. For the same compound, the Vd/F (800 mg single dose (A5), Fed, Low-fat, read-out: Vz/F(norm)) was 1.35 L/kg, the “Decrease in AUC0-t” value [5] was 23.5% and the “Decrease in AUC0-∞” value [5] was 22.8%. The “Decrease in Cmax” value [5] was 25.0%.
